{
  "source": "patent US11873295B2",
  "about": "“Allosteric chromenone inhibitors of phosphoinositide 3-kinase (PI3K) for the treatment of disease” (Petra Pharma Corporation, priority 2021, dated 2024)",
  "key": {"[1]": {"biological_target": "T1, human full length PIK3KA Wild-type (p110α/p85α complex) (Homo sapiens, UniProt P42336)", "T1 construct": "Recombinant, catalytically active human full length PIK3KA Wild-type and H1047R mutant were purchased as 1:1 complex; 6xHis (N); purchased EMD Millipore Sigma 14-602M", "assay": "PI3K-alpha kinase (PIK3CA) biochemical activity, wild-type, ADP-Glo", "conditions": "PI3K-α (PIK3CA) biochemical, Soy PI lipid substrate", "outline": "(§1)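 ADP formation, read by ADP-Glo, is run to about 10% ATP turnover at 27 °C with 20 μM ATP and 50 μM PIP2diC8 or soy PI. WT or H1047R p110α/p85α (1–5 nM) is pre-incubated 1 h with compound in HEPES pH 7.4/MgCl2/Triton buffer, 1% DMSO. 10-point 1:3 series, logistic IC50 versus no-enzyme and DMSO controls.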"}, "[2]": {"biological_target": "T2, human full length PIK3KA H1047R mutant (p110α/p85α complex) (Homo sapiens, UniProt P42336, H1047R)", "T2 construct": "Recombinant, catalytically active human full length PIK3KA Wild-type and H1047R mutant were purchased as 1:1 complex; 6xHis (N); purchased EMD Millipore Sigma 14-792M", "T2 sequence (P42336 whole entry H1047R)": "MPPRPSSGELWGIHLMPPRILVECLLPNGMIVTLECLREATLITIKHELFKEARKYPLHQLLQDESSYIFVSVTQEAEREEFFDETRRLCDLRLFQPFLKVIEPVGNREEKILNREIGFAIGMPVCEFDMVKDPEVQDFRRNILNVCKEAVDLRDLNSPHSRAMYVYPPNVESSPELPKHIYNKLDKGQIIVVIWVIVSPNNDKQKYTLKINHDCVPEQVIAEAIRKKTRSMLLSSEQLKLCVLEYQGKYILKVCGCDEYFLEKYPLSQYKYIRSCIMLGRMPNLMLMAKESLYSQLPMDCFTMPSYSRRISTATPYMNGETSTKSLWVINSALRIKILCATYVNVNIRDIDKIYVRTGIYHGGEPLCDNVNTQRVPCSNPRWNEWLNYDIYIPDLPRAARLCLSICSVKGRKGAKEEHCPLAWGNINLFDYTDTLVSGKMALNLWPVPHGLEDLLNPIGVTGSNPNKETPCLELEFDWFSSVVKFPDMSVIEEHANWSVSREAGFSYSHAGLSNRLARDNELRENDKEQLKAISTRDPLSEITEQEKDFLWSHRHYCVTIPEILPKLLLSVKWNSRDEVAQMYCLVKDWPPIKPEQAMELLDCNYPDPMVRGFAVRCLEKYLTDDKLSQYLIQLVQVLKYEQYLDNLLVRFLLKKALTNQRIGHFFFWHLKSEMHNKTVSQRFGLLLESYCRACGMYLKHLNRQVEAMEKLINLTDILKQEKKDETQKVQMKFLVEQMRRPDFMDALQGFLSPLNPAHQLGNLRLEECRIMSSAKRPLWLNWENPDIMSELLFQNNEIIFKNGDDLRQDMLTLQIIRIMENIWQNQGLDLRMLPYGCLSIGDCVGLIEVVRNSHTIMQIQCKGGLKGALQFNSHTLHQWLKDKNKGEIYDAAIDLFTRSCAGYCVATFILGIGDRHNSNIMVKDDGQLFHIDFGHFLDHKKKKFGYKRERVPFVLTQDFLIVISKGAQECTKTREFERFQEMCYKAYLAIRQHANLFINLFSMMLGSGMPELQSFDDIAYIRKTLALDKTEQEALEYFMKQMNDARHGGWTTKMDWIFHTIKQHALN", "T2 sequence (P27986 whole entry partner)": "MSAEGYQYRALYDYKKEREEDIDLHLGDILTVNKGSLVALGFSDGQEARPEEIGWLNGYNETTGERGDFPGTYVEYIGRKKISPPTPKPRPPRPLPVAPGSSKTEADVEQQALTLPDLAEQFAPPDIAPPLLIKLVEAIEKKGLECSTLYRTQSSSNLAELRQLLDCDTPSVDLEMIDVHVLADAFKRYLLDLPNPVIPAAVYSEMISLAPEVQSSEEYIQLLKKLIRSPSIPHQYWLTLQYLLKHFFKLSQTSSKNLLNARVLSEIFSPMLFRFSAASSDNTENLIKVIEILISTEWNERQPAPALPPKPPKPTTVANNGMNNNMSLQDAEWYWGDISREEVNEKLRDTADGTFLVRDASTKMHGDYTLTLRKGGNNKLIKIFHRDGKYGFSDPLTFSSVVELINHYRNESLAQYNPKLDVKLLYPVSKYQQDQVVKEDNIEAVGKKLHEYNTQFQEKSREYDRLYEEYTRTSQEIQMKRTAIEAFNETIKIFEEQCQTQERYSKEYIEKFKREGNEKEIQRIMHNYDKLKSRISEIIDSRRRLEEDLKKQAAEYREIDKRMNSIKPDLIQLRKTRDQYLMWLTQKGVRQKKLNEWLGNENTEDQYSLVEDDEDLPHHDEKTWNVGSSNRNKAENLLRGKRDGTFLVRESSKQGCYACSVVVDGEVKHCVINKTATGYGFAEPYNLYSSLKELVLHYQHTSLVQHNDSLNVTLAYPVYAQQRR", "assay": "PI3K-alpha kinase (PIK3CA) biochemical activity, H1047R mutant, ADP-Glo", "conditions": "PI3K-α (PIK3CA) biochemical, H1047R mutant, Soy PI lipid substrate", "outline": "as §1"}, "[3]": {"system": "PI3K-α (PIK3CA) in MDA-MB-453 cells", "assay": "PI3K-alpha kinase (PIK3CA) activity in vitro cell based assay, MDA-MB-453 cells, AlphaLisa SureFire", "conditions": "0% FBS, 3 hours treatment, relative IC50", "outline": "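MDA-MB-453 cells in serum-free MEM with 1 μg/mL insulin treated 3 h with 10-point 1:3 compound dilutions, 0.3% DMSO. Lysates read by AlphaLisa SureFire; percent inhibition relative to DMSO (max) and 1 μM GDC-0032 (min), duplicate means fitted to 4-parameter logistic for relative IC50.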"}},
  "data": [
    {"compound": "Cc1cc([C@@H](C)Nc2cccc(F)c2C(=O)O)c2oc(-c3ccccc3)c(C)c(=O)c2c1", "note": "[Example 69, 2-[[(1R)-1-(3,6-Dimethyl-4-oxo-2-phenyl-chromen-8-yl)ethyl]amino]-6-fluoro-benzoic acid]", "values": [
      {"measurement": "IC50", "setting": "[1]", "value": "500 to 1000", "unit": "nM"},
      {"measurement": "IC50", "setting": "[2]", "value": "< 500", "unit": "nM"},
      {"measurement": "IC50", "setting": "[3]; Homo sapiens, MDA-MB-453, 3 h", "value": "< 50", "unit": "nM"}
    ]},
    {"compound": "Cc1cc([C@@H](C)Nc2ccc(Cl)nc2C(=O)O)c2oc(-c3ccc(F)c(F)c3)c(C)c(=O)c2c1", "note": "[Example 113, 6-Chloro-3-[[(1R)-1-[2-(3,4-difluorophenyl)-3,6-dimethyl-4-oxo-chromen-8-yl]ethyl]amino]pyridine-2-carboxylic acid]", "values": [
      {"measurement": "IC50", "setting": "[1]", "value": "1000 to 5000", "unit": "nM"},
      {"measurement": "IC50", "setting": "[2]", "value": "< 500", "unit": "nM"},
      {"measurement": "IC50", "setting": "[3]; Homo sapiens, MDA-MB-453, 3 h", "value": "< 50", "unit": "nM"}
    ]},
    {"compound": "Cc1cc([C@@H](C)Nc2ccccc2C(=O)O)c2oc(-c3ccccc3)c(-c3cnoc3)c(=O)c2c1", "note": "[Example 85, 2-[[(1R)-1-(3-Isoxazol-4-yl-6-methyl-4-oxo-2-phenyl-chromen-8-yl)ethyl]amino]benzoic acid 2,2,2-trifluoroacetic acid]", "values": [
      {"measurement": "IC50", "setting": "[1]", "value": "1000 to 5000", "unit": "nM"},
      {"measurement": "IC50", "setting": "[2]", "value": "< 500", "unit": "nM"},
      {"measurement": "IC50", "setting": "[3]; Homo sapiens, MDA-MB-453, 3 h", "value": "< 50", "unit": "nM"}
    ]},
    {"compound": "Cc1cc([C@@H](C)Nc2ccccc2C(=O)O)c2oc(-c3ccc(F)cc3)c(C)c(=O)c2c1", "note": "[Example 29, 2-[[(1R)-1-[2-(4-Fluorophenyl)-3,6-dimethyl-4-oxo-chromen-8-yl]ethyl]amino]benzoic acid]", "values": [
      {"measurement": "IC50", "setting": "[1]", "value": "500 to 1000", "unit": "nM"},
      {"measurement": "IC50", "setting": "[2]", "value": "< 500", "unit": "nM"},
      {"measurement": "IC50", "setting": "[3]; Homo sapiens, MDA-MB-453, 3 h", "value": "< 50", "unit": "nM"}
    ]},
    {"compound": "Cc1cc([C@@H](C)Nc2cccc(Cl)c2C(=O)O)c2oc(-c3ccccc3)c(C)c(=O)c2c1", "note": "[Example 76, 2-Chloro-6-[[(1R)-1-(3,6-dimethyl-4-oxo-2-phenyl-chromen-8-yl)ethyl]amino]benzoic acid]", "values": [
      {"measurement": "IC50", "setting": "[1]", "value": "5000 to 10000", "unit": "nM"},
      {"measurement": "IC50", "setting": "[2]", "value": "< 500", "unit": "nM"},
      {"measurement": "IC50", "setting": "[3]; Homo sapiens, MDA-MB-453, 3 h", "value": "< 50", "unit": "nM"}
    ]},
    {"compound": "Cc1cc([C@@H](C)Nc2ccccc2C(=O)O)c2oc(-c3ccccc3)c(C(F)(F)F)c(=O)c2c1", "note": "[Example 70, 2-[[(1R)-1-[6-Methyl-4-oxo-2-phenyl-3-(trifluoromethyl)-chromen-8-yl]ethyl]amino]benzoic acid 2,2,2-trifluoroacetic acid]", "values": [
      {"measurement": "IC50", "setting": "[1]", "value": "1000 to 5000", "unit": "nM"},
      {"measurement": "IC50", "setting": "[2]", "value": "< 500", "unit": "nM"},
      {"measurement": "IC50", "setting": "[3]; Homo sapiens, MDA-MB-453, 3 h", "value": "< 50", "unit": "nM"}
    ]},
    {"compound": "Cc1cc([C@@H](C)Nc2ccccc2C(=O)O)c2oc(-c3ccc(-c4c[nH]nc4C)cc3)c(C)c(=O)c2c1", "note": "[Example 161, 2-[[(1R)-1-[3,6-Dimethyl-2-[4-(3-methyl-1H-pyrazol-4-yl)phenyl]-4-oxo-chromen-8-yl]ethyl]amino]benzoic acid]", "values": [
      {"measurement": "IC50", "setting": "[1]", "value": "500 to 1000", "unit": "nM"},
      {"measurement": "IC50", "setting": "[2]", "value": "< 500", "unit": "nM"},
      {"measurement": "IC50", "setting": "[3]; Homo sapiens, MDA-MB-453, 3 h", "value": "< 50", "unit": "nM"}
    ]},
    {"compound": "Cc1cc([C@@H](C)Nc2ccc(C#N)nc2C(=O)O)c2oc(-c3ccccc3)c(C)c(=O)c2c1", "note": "(single isomer, unassigned; isomer 2) [Example 160]", "values": [
      {"measurement": "IC50", "setting": "[1]", "value": "1000 to 5000", "unit": "nM"},
      {"measurement": "IC50", "setting": "[2]", "value": "< 500", "unit": "nM"},
      {"measurement": "IC50", "setting": "[3]", "value": "100 to 500", "unit": "nM"}
    ]},
    {"compound": "Cc1cc(C(C)Nc2cccc(F)c2C(=O)O)c2oc(-c3cccc(F)c3)c(C)c(=O)c2c1", "note": "(single isomer, unassigned; isomer 1) [Example 105, 2-Fluoro-6-[1-[2-(3-fluorophenyl)-3,6-dimethyl-4-oxo-chromen-8-yl]ethylamino]benzoic acid, Isomer 1]", "values": [
      {"measurement": "IC50", "setting": "[1]", "value": "1000 to 5000", "unit": "nM"},
      {"measurement": "IC50", "setting": "[2]", "value": "< 500", "unit": "nM"},
      {"measurement": "IC50", "setting": "[3]", "value": "< 50", "unit": "nM"}
    ]},
    {"compound": "Cc1cc([C@@H](C)Nc2ccc(C3CC3)nc2C(=O)O)c2oc(-c3ccccc3)c(C)c(=O)c2c1", "note": "[Example 40, 6-Cyclopropyl-3-[[(1R)-1-(3,6-dimethyl-4-oxo-2-phenyl-chromen-8-yl)ethyl]amino]-pyridine-2-carboxylic acid]", "values": [
      {"measurement": "IC50", "setting": "[1]", "value": "5000 to 10000", "unit": "nM"},
      {"measurement": "IC50", "setting": "[2]", "value": "< 500", "unit": "nM"},
      {"measurement": "IC50", "setting": "[3]; Homo sapiens, MDA-MB-453, 3 h", "value": "50 to 100", "unit": "nM"}
    ]},
    {"compound": "Cc1cc([C@@H](C)Nc2ccccc2C(=O)O)c2oc(-c3cc(F)cc(F)c3)cc(=O)c2c1", "note": "[Example 68, 2-[[(1R)-1-[2-(3,5-Difluorophenyl)-6-methyl-4-oxo-chromen-8-yl]ethyl]amino]benzoic acid 2,2,2-trifluoroacetic acid]", "values": [
      {"measurement": "IC50", "setting": "[1]", "value": "1000 to 5000", "unit": "nM"},
      {"measurement": "IC50", "setting": "[2]", "value": "< 500", "unit": "nM"},
      {"measurement": "IC50", "setting": "[3]; Homo sapiens, MDA-MB-453, 3 h", "value": "< 50", "unit": "nM"}
    ]}
  ]
}
